# Results: the NIST ThermoML archive (doi:10.1021/je060068f)
# ± gives the expanded uncertainty stated by the source.
# Conditions: Liquid; pulse-heating method
Structure (SMILES),Critical pressure,Critical temperature
CCCCCOC(=O)c1ccccc1C(=O)OCCCCC,1430 ± 50 kPa,811 ± 9 K
"CCCOC(=O)c1ccccc1C(=O)OCCC [1,2-benzenedicarboxylic acid dipropyl ester]",1900 ± 70 kPa,784 ± 9 K
"CCCCC(CC)COC(=O)c1ccccc1C(=O)OCC(CC)CCCC (centres undefined) [bis(2-ethylhexyl) 1,2-benzenedicarboxylate]",1070 ± 40 kPa,835 ± 9 K
CCCCOC(=O)c1ccccc1C(=O)OCCCC [dibutyl phthalate],1660 ± 60 kPa,797 ± 9 K
CCCCCCCCCCOC(=O)c1ccccc1C(=O)OCCCCCCCCCC [didecyl phthalate],940 ± 30 kPa,870 ± 10 K
CCOC(=O)c1ccccc1C(=O)OCC [diethyl phthalate],2260 ± 80 kPa,776 ± 9 K
CCCCCCCOC(=O)c1ccccc1C(=O)OCCCCCCC [diheptyl phthalate],1240 ± 40 kPa,830 ± 9 K
CCCCCCOC(=O)c1ccccc1C(=O)OCCCCCC [dihexyl phthalate],1340 ± 50 kPa,817 ± 9 K
"COC(=O)c1ccccc1C(=O)OC [dimethyl 1,2-benzenedicarboxylate]",2770 ± 100 kPa,772 ± 9 K
CCCCCCCCCOC(=O)c1ccccc1C(=O)OCCCCCCCCC [dinonyl phthalate],1020 ± 40 kPa,858 ± 9 K
"CCCCCCCCOC(=O)c1ccccc1C(=O)OCCCCCCCC [dioctyl 1,2-benzenedicarboxylate]",1080 ± 40 kPa,840 ± 9 K
CCCCCCCCCCCOC(=O)c1ccccc1C(=O)OCCCCCCCCCCC [diundecyl phthalate],890 ± 30 kPa,886 ± 10 K
